Measured values taken from patent US5928896A, “Polypeptides that include conformation-constraining groups which flank a protein--protein interaction site” (Virginia Commonwealth University, priority 1997, dated 1999).
Where a SMILES comes first, the peptide text is derived from it.

How the values were obtained:
[1] = test system: receptors of sweet tasting papillae; conditions: comparison; cited from earlier work
[2] = Preliminary studies of hypotensive peptide versus diltiazem (diastolic pressure, arrhythmia); type: in vivo, rat
Protocol: Dose: 60 to 120 μg per rat (5 to 10 μM).

SMILES	Sweetness relative to sugar [1]	Effect on diastolic pressure [2]
COC(=O)[C@H](Cc1ccccc1)NC(=O)[C@@H](N)CC(=O)O [aspartame] (H-Asp-Phe-OMe)	160 times sweeter than sugar	
COc1ccc([C@@H]2Sc3ccccc3N(CCN(C)C)C(=O)[C@@H]2OC(C)=O)cc1 [diltiazem]		small increase in the diastolic pressure
